Measured values taken from a melting point compilation (Tetko et al.; mined from patent text by program, amines drawn as free bases though some values may be those of a salt).

Point of comparison: `CCOc1ccc2c(c1)C(C)(c1cc(NC(=O)CN(C)C)ccc1Cl)C(=O)N2S(=O)(=O)c1ccc(C(=O)NC(C)(C)C)cc1OC` (configuration not stated), melting point 150 °C. Against it:
- Cc1nnc2n1-c1sc3c(c1C(c1ccccc1Cl)=NC2)CCN(C(=S)Nc1ccccc1C(F)(F)F)C3 — higher, 190 to 192 °C
- CN1CCC(O)(c2cccn2Cc2ccccc2F)CC1 — higher, 164 to 165 °C
- O=C1CC(c2ccccc2)c2ccc(Cl)cc21 (configuration not stated) — lower, 84 to 92 °C
- C=CCC1Cn2c(ncc(C(=O)O)c2=O)-c2cc(OC)ccc21 (configuration not stated) — lower, 128 to 130 °C
- CCCc1c(SCCCOc2ccc3c(=O)cc(C(=O)O)oc3c2CCC)ccc(C(C)=O)c1N — higher, 202 to 204 °C
- CC1CN(c2ccc(C(N)=O)cc2)CCN1Cc1cn2cc(Cl)ccc2n1 (racemic) — higher, 202 to 204 °C
- COc1ccc(-c2csc(N(C(C)=O)c3cc4ccccc4cn3)n2)cc1OC — higher, 164 to 165 °C
- O=C(O)C(Cc1ccccc1)Oc1ccc(-c2ccc(-c3c(Cc4ccccc4)sc4ccccc34)cc2)cc1 (configuration not stated) — higher, 165 to 167 °C
- COc1ccc(Cn2c(=O)[nH]c3ccc([N+](=O)[O-])cc3c2=O)cc1 — higher, 254 to 256 °C
- NCCn1c(-c2ccc(Br)cc2)csc1=Nc1ccccc1 — lower, 58 to 61 °C
- Cc1cccc2c1N(CC(=O)N1CC3CCC(CC3)C1)C(=O)C(NC(=O)Nc1cccc(Cc3nnn[nH]3)c1)N=C2c1ccccc1F (configuration not stated) — higher, 154 to 168 °C
- CCCCOC(=O)c1cccc(CCN(C)CCCC(C#N)(c2ccc(OC)c(OC)c2)C(C)C)c1 (configuration not stated) — lower, 97 to 103 °C
- C[Si](C)(C)c1cccc(NC(=O)c2ccc(C(=O)O)cc2)c1 — higher, 211 to 213 °C
- CC(=O)NC[C@H]1CN(c2ccc3c(c2)CC(C)N3CCF)C(=O)O1 (some centres not stated) — lower, 127 to 130 °C
- N#Cc1c(N)cccc1N — lower, 91 to 92 °C
- CCCCCCC1CCC(C(=O)Nc2c(C(C)C)cccc2C(C)C)C(=O)O1 (configuration not stated) — lower, 113 to 115 °C
- COc1ccc(CN2C(=O)c3c(-c4ccccc4Cl)cc4[nH]c5ccc(OC)cc5c4c3C2=O)c(OC)c1 — higher, 224 to 226 °C
- O=C(O)C1(c2ccc(C#Cc3ccccc3)cc2)CC1 — higher, 214 to 218 °C
- CCC(CC)n1nnc2c(Nc3c(Br)cc(OC)cc3OC)nc(C)cc21 — higher, 166 to 167 °C
- CCCCN(c1cccc(-c2ccnc3c([N+](=O)[O-])cnn23)c1)S(C)(=O)=O — higher, 153 to 155 °C
- O=C(c1cccs1)c1cccc2c1CCC2C(=O)O (configuration not stated) — lower, 122 to 124 °C
- CCCCCCCCCCCCCCCCNc1ccc(C(=O)OCCCCO)cc1 — lower, 61 to 63 °C
- ClCCCCCOc1ccc(C2=C(c3ccc(OC4CCCCO4)cc3)CCCc3cc(OC4CCCCO4)ccc32)cc1 (configuration not stated) — lower, 110 to 112 °C
- N#Cc1ccc(Nc2nc(Cl)ccc2[N+](=O)[O-])cc1 — higher, 175 to 178 °C
- COc1ccc(C2C3=C(COC3=O)Nc3onc(-c4ccc(Cl)cc4)c32)cc1O (configuration not stated) — higher, 245 to 246 °C
- Clc1cccc2c1ccn2Cc1ccccc1 — lower, 58 to 60 °C
- O=C(O)C(=Cc1cc(C(=O)O)c(=O)n2ccccc12)C(=O)O — higher, > 250 °C
- COC(=O)c1cnccc1C(=O)c1ccc(-n2ccnc2)cc1 — lower, 135 to 137 °C
- COc1ccc(C2=NN(C3CCN(C(=O)CCCOc4ccc5[nH]c(=O)ccc5c4)CC3)C(=O)CC2)cc1OC — higher, 169 to 171 °C
- CCNC(=O)N1CCN(C2CCCc3ccc(OC)cc32)CC1 (configuration not stated) — lower, 141 to 143 °C
- CCn1nnc2cc3c(=O)n(C(C)Cn4ncnn4)nnc3cc2c1=O (configuration not stated) — higher, 174 to 176 °C
- O=C(c1ccc(-c2ccccc2)cc1)N1CCCCc2sccc21 — higher, 164 to 166 °C
- COC(=O)C(N)CSCc1ccccc1 (configuration not stated) — lower, 84 to 87 °C
- COC(=O)[C@H](CS)NC(=O)[C@@H](O)CO — lower, 90 to 92 °C
- CCOC(=O)c1c(CCl)nc2cc(OC)c(OC)cc2c1-c1ccc(Cl)c(Cl)c1 — higher, 159 to 160 °C
- N#Cc1c(Cl)nc2ccccc2c1Cl — higher, 157 °C
